Laboratory results from US20230218555A1, “CREATINE, ITS DERIVATIVES, COMPOSITIONS AND METHODS OF USE THEREOF” (priority 2021, published 2023).
Entries after “also recorded” stand apart in the source; their conditions may differ.

Key:
Type in all cases: in vivo, human
[1] = system: Aphthous Ulcers (Canker Sores); assay: Example 20: aphthous ulcers (canker sores), topical
From the text: Two eroded painful sites 2-3 mm in diameter on the right side of the tongue worsened over 2 days in a subject. At bedtime of the 2nd day, the subject topically applied C15 3% in water: propylene glycol 8:2.

[2] = system: acute pain in the left side of their neck; assay: Example 11: acute neck pain; settings: 1.5% in water: propylene glycol 8:2, topical to neck
From the text: A subject who had shoveled heavy snow all day, throwing the snow mostly to left, upon arising from bed the next morning experienced acute pain in the left side of their neck that intensified as they attempted to move their head in any direction.

[3] = system: dermatitis of uncertain etiology; assay: Example 32: itch of dermatitis of uncertain etiology
Description: subject one who had worked planting a new rock and flower garden during the day, in the evening became acutely aware of an itch sensation in the lower back, just below the beltline. […] Itch relief lasted for 2-3 hours; three additional applications were made during the night. […] Etiology was not ascertained.

eczema = assay: Examples 30 and 37: itch and eczema
From the text: subject two, with a 25 year history of eczema, was provided a topical formulation of 6% C15 in a lotion made up of hydrophilic ointment USP 35% diluted with 65% water. […] They emphasized, however, that their eczema worsens in the autumn and winter, so their final judgment needs to be delayed from the summer season to several months later.
subject four with a 14 year history of eczema was provided the same lotion.
subject three, with a history of eczema for 35 years, was provided the same solution. […] They have expressed great gratitude and hopes that the same beneficial results will persist during the autumn and winter seasons.
subject two, with a 25 year history of eczema, was provided a topical formulation of 6% C15 in a lotion made up of hydrophilic ointment USP 35% diluted with 65% water. After ten days of topical applications, itch was relieved for intervals of 1.5 hour up to 24 hours. […] Sites of itch were treated with prompt application of the above lotion which completely aborted further development.
subject four with a 14 year history of eczema was provided the same lotion. […] Patient has moved from the area and has been lost to long term follow up.
subject three, with a history of eczema for 35 years, was provided the same formulation. […] They expressed great gratitude and hoped that the same beneficial results would persist during the autumn and winter months.
They reported: “I use it sparingly. If I feel any itch or see a little patch I put it on and it's gone like the next day. […] It's so great. It's miraculous!”

psoriatic arthritis = assay: Example 25: psoriatic arthritis, topical C15
From the text: A subject with a 42 year history of psoriasis, and psoriatic arthritis for the past 8 years, was provided a topical solution of C15 4% in WP 82. […] The subject has used topical formulations of C15 for over 12 weeks, comparing efficacy of 2%, 3.5% and 5% concentrations of C15.

painful left knee = assay: Example 10: acute knee pain after physical trauma
From the text: A subject with painful left knee gave a history of physical trauma to the left knee while cleaning their house. Degree of pain was sufficiently intense that it required them to wear a knee brace throughout the day, daily. […] The subject was provided a formulation of N-acetyl ethyl creatinate 1.5% dissolved in water: propylene glycol 8:2 for topical application.

[4] = system: pruritic urticarial mosquito bite lesions; assay: Example 28: mosquito bite itch
Description: Six subjects, 2 males and 4 females, age 31-74 years, who had gathered for a back yard cookout, suffered multiple mosquito bites. One subject carried 2 ounces of C15 6% in WEP 532 shared with the five others for topical application to the pruritic urticarial mosquito bite lesions.
This solution was later applied to an intensely pruritic urticarial lesion, 1 cm in diameter, due to a mosquito bite. […] Clinical evidence of the lesion began to fade about 3 minutes later, and at 5 minutes the subject had no sensory awareness of the lesion as it disappeared over the next 10-15 minutes.

[5] = system: Rheumatoid Arthritis (RA); assay: Example 26: rheumatoid arthritis, intralesional injection and topical; settings: 3-9% in WP 82 in nitrile gloves, 1 hour twice daily, after the creatine injections
Description: A subject, described in an earlier Example, after approximately 4 months of worsening symptoms, and finger joint enlargements on both hands, realized that they were rapidly developing RA, especially when a rheumatoid nodule enlarged over the terminal joint of the left […] finger to a size of approximately 1 cm in diameter, and about 3 mm thick. The nodule was initially injected with 0.15 ml of a 2% aqueous solution/suspension of creatine monohydrate once weekly for 4 injections. […] Thereafter the subject wore a nitrile glove containing a few drops of C15 3-9% dissolved in WP 82 for an hour twice daily on the left hand only. After another 2 months C15 9% in WP 82 was topically applied by means of their wearing nitrile gloves containing the C15 solution for 1 hour twice daily. […] It is intended for the subject to continue topical treatment in one form or another for an indefinite time forward.

[6] = 6% lotion as needed, person three

CCOC(=O)CN(C)C(N)=NC(C)=O [Compound C15, N-acetyl ethyl creatinate]
extent of pain relief ([1]; 3% in water: propylene glycol 8:2, topical to tongue): Complete pain relief
clinical sign of lesions next day ([1]; 3% topical): No clinical sign of the lesions could be detected next day
return of pain ([1]; 3% topical): remained pain free throughout the night and did not return
time to pain relief ([1]; 3% topical): within less than a minute
time to pain relief [2]: ≤ 2 min
extent of pain relief ([2]; person): neck pain subsided completely and did not return
extent of itch relief ([3]; 4% in water: propylene glycol 8:2, topical): Itch was completely relived
duration of itch relief ([3]; 4% topical): 2 to 3 h
resolution of dermatitis and itch ([3]; three additional applications during the night): The dermatitis and itch resolved early next day
itch after 4 days of application (eczema; [6]): itch was now negligible; also recorded: itch became negligible
signs of eczema on skin (eczema; [6]): skin was nearly entirely free of signs of eczema; also recorded: skin became nearly entirely free of signs of eczema
extent of itch relief (eczema; 6% lotion, 2 weeks, person four): itch was relieved completely
duration of itch relief after a single application (eczema; 6% lotion, person four): 24 to 48 h
eczema after ten days (eczema; 6% lotion, person two): felt that their eczema was undergoing resolution
eczema at the end of the following February (eczema; 6% lotion, person two): eczema was still under almost complete resolution
skin at the end of February (eczema; person three): their skin has remained clear
duration of relief (psoriatic arthritis; 4% in WP 82): 6 to 24 h
relief of pain (psoriatic arthritis; 4% in WP 82, topical to wrists, hands, fingers and ankles, person): almost instantaneous, complete relief of pain
comparison of 2%, 3.5% and 5% concentrations (psoriatic arthritis; 5% administered as a spray mist): most effective of the three
duration of complete pain relief (psoriatic arthritis; 5% spray mist): 24 h
time to pain relief after application (painful left knee; 1.5% in water: propylene glycol 8:2, topical): about 2 minutes
extent of pain relief (painful left knee; 1.5% in water: propylene glycol 8:2, topical, person): pain in the knee completely vanished
recurrence of pain (painful left knee; at report 10 days later): Pain had not recurred
extent of itch relief ([4]; 6% in WEP 532, topical, six subjects): itch was completely eradicated
extent of itch relief ([4]; 6% in WEP 532, person one, lesion 1 cm): all itch sensation was gone and did not return
time to eradication of itch ([4]; 6% in WEP 532, six subjects): about 1 minute
time to loss of itch sensation ([4]; person one): ≤ 1 min
time until lesion began to fade, after itch relief ([4]; person one): about 3 minutes
time of disappearance of lesion ([4]; person one, counted from 5 minutes): 10 to 15 min
return of itch ([4]; six subjects): No itch returned
appearance of hands after 9 months of treatments [5]: both hands appear to be completely normal
